Data on three compounds can be found in patent US10323026B2, “Heterocyclic compound” (Takeda Pharmaceutical Company Limited, priority 2016, dated 2019).

What is called inhibition is the change of the read-out against control, counted positive when it falls.

Like-named read-outs stand apart in the source and are kept apart here.

Data set [1] deals with T1, His-hMAGL (recombinant polyhistidine tagged human MAGL protein) (Homo sapiens, UniProt Q99685).
T1 construct: polyhistidine (His) (N); made in house; host or cells: E. coli BL21(DE3)
T1 sequence (Q99685 1-303): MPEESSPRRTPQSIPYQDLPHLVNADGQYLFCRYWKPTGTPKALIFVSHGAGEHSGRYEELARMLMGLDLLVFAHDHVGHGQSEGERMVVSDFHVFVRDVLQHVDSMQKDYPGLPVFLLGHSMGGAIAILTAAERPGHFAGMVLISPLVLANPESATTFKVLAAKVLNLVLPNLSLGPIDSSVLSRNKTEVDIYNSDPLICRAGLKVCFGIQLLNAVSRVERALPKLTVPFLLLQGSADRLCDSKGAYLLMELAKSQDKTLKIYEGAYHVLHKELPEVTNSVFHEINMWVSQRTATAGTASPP
The data set is described as follows: Measurement of MAGL inhibitory activity (RapidFire-mass spectrometry of arachidonic acid produced from 2-arachidonylglycerol). The format is biochemical. The conditions noted are these: read-out: % inhibition (10 μM). In outline:
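After quenching with acetonitrile containing 3 μM arachidonic acid-d8, the arachidonic acid formed was measured by online SPE RapidFire-MS/MS in negative SRM mode and corrected against the d8 standard. Inhibition (%) was calculated relative to compound-free and enzyme-free groups.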

Data set [2] relates to intracerebral 2-AG and arachidonic acid. The experiment in a line: Measurement of intracerebral 2-AG and arachidonic acid concentrations. Format: in vivo, mouse (C57BL/6J). The conditions noted are these: for 2-AG concentration / arachidonic acid concentration: cerebrum of male C57BL/6J mice, 3 mg/kg body weight by gavage, isolated 1 hour after administration; for 2-AG concentration: control 9.9; for arachidonic acid concentration: control 163.5; for migration into brain / intracerebral 2-AG concentration compared to control / intracerebral arachidonic acid concentration compared to control: oral administration to C57BL/6J mice; for intracerebral 2-AG concentration compared to control / intracerebral arachidonic acid concentration compared to control: result in words. The protocol:
As the mouse, 8-week-old male C57BL/6J mice (CLEA Japan, Inc.) were used (6 mice/group). Administration solutions were prepared by suspending the test compounds (compound 1 (compound of Example 6), compound 2 (compound of Example 93) and compound 3 (compound of Example 97)) in 0.5% methylcellulose solution (Wako Pure Chemical Industries, Ltd.). The dose of the test compound was prepared to be 3 mg/kg body weight/10 mL. The test compounds were administered by gavage at 3 mg/kg body weight. The cerebrum was isolated after the administration of the test compound (isolation time after the administration of the test compound is shown in Table 3), and the cerebrum hemisphere was extracted. The obtained cerebrum hemisphere was frozen on dry ice, and the frozen tissue weight was measured.
The cerebral tissue weight was measured, and cerebral tissue was homogenized with 4-fold (v/w) of isopropanol (IPA), and double diluted with IPA. To the diluted sample (200 μL) was added internal standard solution (5 μL) ([5,6,8,9,11,12,14,15-D8]-(5Z,8Z,11Z,14Z)5,8,11,14-eicosatetraenoic acid (AA-d8, 0.5 nmol/mL IPA) and [5,6,8,9,11,12,14,15-D8]-(5Z,8Z,11Z,14Z)-5,8,11,14-eicosatetraenoyl-2-glycerol ester (2-AG-d8, 0.5 nmol/mL IPA)), and the mixture was centrifuged at 15000 rpm for 5 min. The supernatant was injected to liquid chromatographymass spectrometer to perform quantitative analysis.
For liquid chromatography, Shimadzu LC20A system (Shimadzu Corporation) was used. The separation was performed by gradient elution method with mobile phase A (10 mmol/L HCOONH4/HCOOH (100:0.2, v/v)) and mobile phase B (ethanol/IPA (3:2, v/v)) using Shim-pack XR-ODS (2.2 μm, 2.0×30 mm, Shimadzu Corporation) at column temperature of 50° C., at flow rate of 0.5 mL/min. The gradient conditions are as follows: 0-1 min, 1% B; 1-1.2 min, 1-55% B; 1.2-2.7 min, 55-75% B; 2.7-3.5 min, 75-99% B; 3.5-6 min, 99% B; 6-8 min, 1% B.
For mass spectrometer, API5000 (AB SCIEX) was used. The eluate from the liquid chromatography was directly ionized by turbospray ionization method, where (5Z,8Z,11Z,14Z)5,8,11,14-eicosatetraenoic acid (AA) and AA-d8 were measured by negative ionization mode, and (5Z,8Z,11Z,14Z)5,8,11,14-eicosatetraenoyl-2-glycerol ester (2-AG) and 2-AG-d8 were measured by positive ionization mode.
A solution for calibration curve was prepared to the concentration of 2, 5, 10, 20, 50, 100, 200, 500, 1000 nmol/mL of acetonitrile. These solutions (10 μL) was mixed with 200 μL of IPA and 5 μL of internal standard solution, and the mixture was centrifuged at 15000 rpm for 5 min, and the supernatant was injected to liquid chromatography mass spectrometer to perform analysis. The calibration curve was drawn by regression line with a weighting of 1/x^2, and the quantitativity was confirmed by accuracy of 100±20% and R^2>0.99.

Where [3] appears, read: test compound 10 μM, His-hMAGL, substrate 2-arachidonylglycerol, 60 min preincubation.

In the case of `O=C1N[C@]2(CO1)C[C@H](C(=O)N1CC(OCc3ccc(C(F)(F)F)cc3F)C1)C2` [Example 6, (2s,4s)-2-((3-((2-fluoro-4-(trifluoromethyl)benzyl)oxy)azetidin-1-yl)carbonyl)-7-oxa-5-azaspiro[3.4]octan-6-one], the inhibition at 10 µM in data set [1] (setting [3]) worked out at 100%. For the same compound, in data set [2], the 2-AG concentration is 124.5 nmol/g, the arachidonic acid concentration is listed as 31.7 nmol/g, the migration into brain result was “migrated into brain” and the “intracerebral 2-AG concentration compared to control” value is recorded as “increased significantly”. Further, the “intracerebral arachidonic acid concentration compared to control” value in data set [2] is given as “decreased significantly”.

Regarding `Cc1cc(C(F)(F)F)ccc1COC1CN(C(=O)[C@H]2C[C@]3(COC(=O)N3)C2)C1` [Example 93, (2s,4s)-2-((3-((2-methyl-4-(trifluoromethyl)benzyl)oxy)azetidin-1-yl)carbonyl)-7-oxa-5-azaspiro[3.4]octan-6-one], the inhibition at 10 µM in data set [1] (setting [3]) stood at 100%. In data set [2], the 2-AG concentration was 125.2 nmol/g, the arachidonic acid concentration was found to be 42.6 nmol/g, the migration into brain entry is given as “migrated into brain” and the “intracerebral 2-AG concentration compared to control” value is listed as “increased significantly”. Further, the “intracerebral arachidonic acid concentration compared to control” value in data set [2] is recorded as “decreased significantly”.

Take `Cc1ccc(COC2CN(C(=O)[C@H]3C[C@]4(COC(=O)N4)C3)C2)cc1Cl` [Example 97, (2s,4s)-2-((3-((3-chloro-4-methylbenzyl)oxy)azetidin-1-yl)carbonyl)-7-oxa-5-azaspiro[3.4]octan-6-one]: the inhibition at 10 µM in data set [1] turned out to be 100%. In data set [2], the 2-AG concentration amounted to 131.9 nmol/g, the arachidonic acid concentration is 60.9 nmol/g, the migration into brain entry is “migrated into brain” and the “intracerebral 2-AG concentration compared to control” value is “increased significantly”. Moreover, the “intracerebral arachidonic acid concentration compared to control” value in data set [2] is recorded as “decreased significantly”.
